This experiment addresses RNA-directed RNA polymerase (Hepacivirus hominis, UniProt O39930). In words: Inhibitory concentration against Hepatitis C virus RNA dependent RNA polymerase Nonstructural protein 5B.

This note sets out measurements from ChEMBL document CHEMBL1142030, “Identification of small molecule inhibitors of the hepatitis C virus RNA-dependent RNA polymerase from a pyrrolidine combinatorial mixture” (Bioorg Med Chem Lett, 2005).

“And” between values parts separate entries of the source, which are not always exact repeats. Equal entries are not always repeated.

Chain of RNA-directed RNA polymerase (O39930 whole entry): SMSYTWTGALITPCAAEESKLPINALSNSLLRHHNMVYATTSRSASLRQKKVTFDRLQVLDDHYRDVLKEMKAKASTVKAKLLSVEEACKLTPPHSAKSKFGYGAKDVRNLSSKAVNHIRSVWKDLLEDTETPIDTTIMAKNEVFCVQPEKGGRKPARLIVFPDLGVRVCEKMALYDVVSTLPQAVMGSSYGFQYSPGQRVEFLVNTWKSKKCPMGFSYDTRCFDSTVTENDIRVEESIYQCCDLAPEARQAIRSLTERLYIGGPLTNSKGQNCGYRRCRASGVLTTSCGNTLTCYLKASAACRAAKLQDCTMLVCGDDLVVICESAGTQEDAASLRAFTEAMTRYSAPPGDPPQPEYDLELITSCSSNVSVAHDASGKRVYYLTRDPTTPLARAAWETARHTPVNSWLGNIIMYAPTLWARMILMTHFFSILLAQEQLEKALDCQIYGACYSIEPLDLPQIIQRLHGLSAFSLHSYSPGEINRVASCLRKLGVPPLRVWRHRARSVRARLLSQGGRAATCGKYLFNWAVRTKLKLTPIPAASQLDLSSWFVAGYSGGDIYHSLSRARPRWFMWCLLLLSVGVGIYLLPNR

With `Cc1ccc([C@H]2[C@@H](C(=O)O)C[C@@](CC(C)C)(C(=O)O)N2C(=O)c2ccc(C(F)(F)F)cc2)cc1`, the IC50 is 1000 nM.

Turning to `CC(C)C[C@@]1(C(=O)O)C[C@H](C(=O)O)[C@H](c2cccs2)N1C(=O)c1ccc(Cl)c(Cl)c1`, 600 nM corresponded to half-maximal inhibition (IC50). This IC50 lies about 1.7-fold lower than the previous one.

Consider `COc1ccccc1[C@H]1[C@@H](C(=O)O)C[C@@](CC(C)C)(C(=O)O)N1C(=O)c1ccc(C(F)(F)F)cc1`, for which the IC50 worked out at 5100 nM. The value for `NCCC[C@@]1(C(=O)O)C[C@H](C(=O)O)[C@H](c2ccccc2)N1C(=O)c1ccc(C(F)(F)F)cc1` was > 20000 nM; that for `CC(C)C[C@@]1(C(=O)O)C[C@H](C(=O)O)C(c2cccs2)N1C(=O)c1ccc(C(F)(F)F)cc1` (single isomer, unassigned) was 18000 nM.

The compound `CC(C)C[C@@]1(C(=O)O)C[C@H](C(=O)O)[C@H](c2ccccc2)N1C(=O)c1ccc(C(F)(F)F)cc1` returned a 50% inhibitory concentration (IC50) of 700 nM.

`CC(C)C[C@@]1(C(=O)O)C[C@H](C(=O)O)[C@H](c2ccco2)N1C(=O)c1ccc(C(F)(F)F)cc1` yielded an IC50 of 800 nM. This IC50 and that of the compound before are within 1.5-fold of each other. On to `CCCCCCC(=O)N1[C@@H](c2cccs2)[C@@H](C(=O)O)C[C@@]1(CC(C)C)C(=O)O`, for which the IC50 is > 20000 nM. The value for `CCCC[C@@]1(C(=O)O)C[C@H](C(=O)O)[C@H](c2ccccc2)N1C(=O)c1ccc(C(F)(F)F)cc1` was 3300 nM; that for `O=C(O)[C@H]1C[C@@](Cc2ccccc2)(C(=O)O)N(C(=O)c2ccc(C(F)(F)F)cc2)[C@H]1c1ccccc1` was 1900 nM.

Regarding `CC(C)C[C@@]1(C(=O)O)C[C@H](C(=O)O)[C@H](c2nccs2)N1C(=O)c1ccc(C(F)(F)F)cc1`, the IC50 was 400 nM.

`CC(C)C[C@@]1(C(=O)O)C[C@H](C(=O)O)[C@H](c2cccs2)N1C(=O)c1ccccc1`: it took 11400 nM to reach half-maximal inhibition (IC50). Compared with the last compound, the IC50 is about 28-fold higher.

In the case of `O=C(O)[C@H]1C[C@@H](C(=O)O)N(C(=O)c2ccc(C(F)(F)F)cc2)C1` (racemic), the midpoint of inhibition, the IC50, lay at 7600 nM. Against the preceding compound, the IC50 is about 1.5-fold lower.

For the compound `CC(C)C[C@@]1(C(=O)O)C[C@H](C(=O)O)[C@H](c2cccs2)N1C(=O)c1ccccc1C(F)(F)F`, the IC50 is > 20000 nM.

Consider `C[C@@]1(C(=O)O)C[C@H](C(=O)O)[C@H](c2ccccc2)N1C(=O)c1ccc(C(F)(F)F)cc1`, for which the half-maximal inhibitory concentration (IC50) was > 20000 nM. `CC(C)C[C@@]1(C(=O)O)C[C@H](C(=O)O)[C@H](c2cccs2)N1C(=O)c1cccc(C(F)(F)F)c1` yielded a half-inhibitory concentration (IC50) of 600 nM. Compound `O=C(O)[C@H]1C[C@@H](C(=O)O)N(C(=O)c2ccc(Cl)c(Cl)c2)C1` (racemic) returned an IC50 of 12000 nM. For the compound `CC(C)C[C@@]1(C(=O)O)C[C@H](C(=O)O)[C@H](c2ccccn2)N1C(=O)c1ccc(C(F)(F)F)cc1`, 700 nM corresponded to half-maximal inhibition (IC50). Compound `CC(C)C[C@@]1(C(=O)O)C[C@H](C(=O)O)[C@H](c2cccs2)N1C(=O)c1ccc([N+](=O)[O-])cc1` showed an IC50 of 3200 nM.

As for `O=C(O)[C@H]1C[C@@](Cc2ccc(O)cc2)(C(=O)O)N(C(=O)c2ccc(C(F)(F)F)cc2)[C@H]1c1ccccc1`, the IC50 was > 20000 nM. Consider `CC(C)C[C@@]1(C(=O)O)C[C@H](C(=O)O)[C@H](c2ccc(Cl)cc2)N1C(=O)c1ccc(C(F)(F)F)cc1`, for which 900 nM corresponded to half-maximal inhibition (IC50). This counts as sub-micromolar. `CC(C)C[C@@]1(C(=O)O)C[C@H](C(=O)O)[C@H](C(C)C)N1C(=O)c1ccc(C(F)(F)F)cc1` came in with a half-inhibitory concentration (IC50) of 500 nM. `CC(C)C[C@@]1(C(=O)O)C[C@H](C(=O)O)[C@H](c2cccs2)N1C(=O)c1ccc(Cl)cc1`: the IC50 was 1700 nM. For the compound `CC(C)C[C@@]1(C(=O)O)C[C@H](C(=O)O)[C@H](c2cccs2)N1C(=O)c1cccc2ccccc12`, 700 nM corresponded to half-maximal inhibition (IC50). Against the preceding compound, the IC50 is about 2.4-fold lower. Consider `CC(C)C[C@@]1(C(=O)O)C[C@H](C(=O)O)[C@H](c2cccs2)N1C(=O)c1ccncc1`, for which the IC50 is > 20000 nM. As for `O=C(O)CC[C@@]1(C(=O)O)C[C@H](C(=O)O)[C@H](c2ccccc2)N1C(=O)c1ccc(C(F)(F)F)cc1`, the figure is > 20000 nM; as for `CC(C)C[C@@]1(C(=O)O)C[C@H](C(=O)O)[C@H](c2cccs2)N1C(=O)c1ccc(C(F)(F)F)cc1`, 300 nM and 190 nM.
